Assay results: patent US7074811B2 (SmithKline Beecham p.l.c., priority 2000, dated 2006)

Experiment: Hygroscopicity of the Hydrochloride (weight gain at 75% relative humidity)
Type: physicochemical
Conditions: 43 days

hygroscopicity classification (75% relative humidity at 21° C.): non-hygroscopic (<2%)
percentage weight gain (75% relative humidity atmosphere at 21° C., constant weight attained, sample of Example 1): 0.4%
SMILES: CN(CCOc1ccc(CC2SC(=O)NC2=O)cc1)c1ccccn1.Cl (centres unmarked) [Hydrochloride, 5-[4-[2-(N-methyl-N-(2-pyridyl)amino)ethoxy]benzyl]thiazolidine-2,4-dione hydrochloride]
